Reference: patent US9409893B2, “Heteroaryl derivatives and uses thereof” (Jacobus Pharmaceutical Company, Inc., priority 2012, dated 2016)
Structures can show the parent of a compound that is named as a salt. Where two headings read alike, the source gives them in different places. Marks after values point to notes of the source that are not given here.

Tests used:
[1] = tested on: Plasmodium berghei (KBG-173 strain); test: Plasmodium berghei assay in vivo (modified Thompson Test) in CD-1 mice; settings: bid on days 3, 4 and 5; for Average Days Survival: 31 day experiment; for responders at 4 mg/kg / responders at 8 mg/kg / responders at 16 mg/kg / responders at 32 mg/kg / responders at 64 mg/kg: Plasmodium berghei, 744 h, CD-1 mice infected with P. berghei, read-out: Number of mice alive at day 31 (converted)
Protocol: In vivo antimalarial activity was tested in male or female Charles River CD-1 mice that were 4-5 weeks old and weighed 20-25 g They were housed in groups of 3 or 4 in standard plastic cages with wire tops, Bed-o-Cob® bedding, 12 hr/day of light, and maintained at 75° F. They were fed a standard Ralston Purina mouse chow and the cages and bottles were changed twice a week. Test compounds were ground in a mortar and pestle and diluted with enough vehicle to give a volume of 10 mL/kg of mouse weight. The oral doses were prepared in 0.5% hydroxyethylcellulose (Union Carbide Corp. WP 4400)/0.1% Tween-80 (Fisher Scientific T164-500). The amount of drug was calculated on the free base weight. The mice were infected intraperitoneally on day 0 with 5×10^4 erythrocytes parasitized with Plasmodium berghei (KBG-173 strain) from a donor mouse having a parasitemia between 5-10%. On days 3, 4 and 5 the test compounds were administered bid, spaced 6 hr apart, by oral gavage to the mice. Activity was measured by survival, with full activity defined as all animals living at day 31. Partial activity is defined as days of increased survival versus the infected non-treated controls. This in vivo model is a modification of the Thompson Test. For further description see Ager, A. L, Jr. Rodent Malaria Models. In Handbook of Experimental Pharmacology: Antimalarial Drugs. 1. 68/1; Peters, W., Richards, W. H. G., Eds.: Springer-Verlag: Berlin, 1984, pp. 231-33.

[2] = tested on: P. falciparum strain W2; test: [3H]-hypoxanthine growth inhibition assay, P. falciparum W2; type: cell-based; settings: Plasmodium falciparum
Protocol: (§1) The potential for antimalarial activity against Plasmodium falciparum was determined by measuring the incorporation of tritiated hypoxanthine into parasitized red blood cells.
(§2) Stock solutions of the test compounds and the reference drug chloroquine (CQ) (Sigma Chemicals C-6628, Lot #059H0919) were prepared in silanized glass vials with AquaSil™ (Pierce, USA) to minimize absorption of the compounds to glassware. All test compounds were dissolved in DMSO (Sigma Cat No. #D8418) to 1 mM concentration, whereas CQ was dissolved in 50% methanol at a concentration of 1.6 mg/ml (base). Stock solutions were stored at −20° C.
(§3) The P. falciparum laboratory adapted strains utilized in this project (Table 1) were in vitro cultured and routinely maintained in RPMI-1640-LPLF complete medium, which contained low concentrations of para-amino benzoic acid (0.0005 mg/L) and folic acid (0.01 mg/L).
(§4) The low concentration of folic acid in RPMI-1640-LPLF prevents inhibition of the compound if its activity targets the parasite's folate metabolic pathway. Parasites were cultured in human red blood cells (RBCs) in vitro at 37° C. in special gas mixture (5% O2, 5% CO2 and 90% N2) as described Trager and Jensen (1979 Science 193:673-675).
(§5) Base cultivation medium consisted of 10.4 g/L RPMI-1640-LPLF powder (Gibco BRL), 5.97 g/L HEPES buffer (MP Biomedicals, USA), 2.0 g/L D-glucose (BDH chemicals, Australia), 0.05 g/L hypoxanthine (Sigma, USA) and 40 mg/L gentamycin (Pfizer, Australia). The pH of the medium was adjusted to 6.9 and the solution was filtered using 0.2 μm pore size (AcroCap, Gelman Science, USA). Complete medium was prepared by adding sodium bicarbonate solution (final concentration, 0.21%) and drug-free heat-inactivated human plasma, pooled from various blood types, obtained from the Australian Red Cross Blood Service (Brisbane) (final concentration, 10%) to the base RPMI-1640-LPLF. For [^3H]-hypoxanthine inhibition growth assay, RPMI-1640-LPLF complete medium which lacked [^3H]-hypoxanthine ([^3H]-RPMI-1640-LPLF) was used to prevent uptake of hypoxanthine by parasites, as radioactive hypoxanthine uptake is measured as a surrogate marker of growth. All complete medium was used within three days of preparation. See DE (Para) SOP 002 for methodology.
(§6) Red blood cells (RBC) were required for P. falciparum parasites to proliferate in vitro. 0 (Rh+) type blood was obtained from the Australian Red Cross Blood Service. The RBC were washed twice in phosphate-buffered saline (PBS) and once in [^3H]-RPMI-1640-LPLF complete medium by centrifugation at 1,500×g for 5 min. Following the final wash, the haematocrit was measured as the percent of RBC to total culture volume. The haematocrit was adjusted to 50% by removing or adding [^3H]-RPMI-LPLF complete medium. See DE (Para) SOP 003 for methodology.
(§7) All P. falciparum strains were grown in RPMI-1640-LPLF complete medium at 4% haematocrit and 1% to 8% parasitaemia at 37° C. in sealed flasks in a gas mixture of 5% O2, 5% CO2 and 90% N2 (BOC Gases, Brisbane, Australia). For drug susceptibility assays cultures were routinely synchronized when the majority of parasites (>85%) were at early trophozoite (ring) stage. Synchronization involved removing the more mature erythrocytic parasite stages by lysis, resulting in the retention only of early trophozoite (ring) stages. Synchronization was performed by re-suspending the infected red blood cell (iRBC) pellet in 5 to 10 times its volume of 5% D-sorbitol (Bacto Laboratories Pty. Ltd., Australia) for 5 min (Lambros and Vanderberg, 1979 J Parasitol 65: 418-420). The mixture was centrifuged (1,500 rpm for 5 min) and the supernatant removed. The iRBC were washed twice using PBS buffer and once using [^3H]-RPMI-LPLF plain medium. Following synchronization, a new culture was prepared with an initial parasitaemia of 1% in RPMI-LPLF complete medium. See DE (Para) SOP 008 for methodology.

[3] = tested on: P. falciparum strain D6; test: [3H]-hypoxanthine growth inhibition assay, P. falciparum D6; type: cell-based; settings: Plasmodium falciparum
Protocol: as §1, §2, §3, §4, §5, §6, §7

[4] = P. falciparum W2 (resistant to chloroquine and pyrimethamine), [3H]-hypoxanthine incorporation, read-out: W2 IC50
[5] = P. falciparum D6 (sensitive to chloroquine and pyrimethamine), [3H]-hypoxanthine incorporation, read-out: D6 IC50

In the case of CC(C)(C)NCc1cc(-c2ccc(F)cc2)cc(-c2ccc(C(F)(F)F)nc2)c1O.Cl [Example 66, 3-((tert-Butylamino)methyl)-4′-fluoro-5-(6-(trifluoromethyl)pyridin-3-yl)-[1,1′-biphenyl]-4-ol hydrochloride], the “Average Days Survival” value ([1]; 4 mg/kg/day oral) is reported as greater than 21.3 days, the “Average Days Survival” value ([1]; 8 mg/kg/day oral) is reported as greater than 26 days and the “Average Days Survival” value ([1]; 16 mg/kg/day oral) is reported as >31* days. The “Average Days Survival” value ([1]; 32 mg/kg/day oral) was greater than 24 days, the “Average Days Survival” value ([1]; 64 mg/kg/day oral) was greater than 7 days and the responders at 4 mg/kg ([1]; 4 mg/kg/day oral) was 14.3%. It also gave a responders at 8 mg/kg ([1]; 8 mg/kg/day oral) of 85.7%, a responders at 16 mg/kg ([1]; 16 mg/kg/day oral) of 100% and a responders at 32 mg/kg ([1]; 32 mg/kg/day oral) of 85.7%. It also gave a responders at 64 mg/kg ([1]; 64 mg/kg/day oral) of 85.7%, an IC50 [2, 4] of 41 nM and an IC50 [3, 5] of 70 nM.

CC(C)(C)NCc1cc(C(C)(C)C)cc(-c2cnc(C(F)(F)F)c(Cl)c2)c1O.Cl [Example 44, 4-(tert-Butyl)-2-((tert-butylamino)methyl)-6-(5-chloro-6-(trifluoromethyl)pyridin-3-yl)phenol hydrochloride] was tested, and the “Average Days Survival” value ([1]; 4 mg/kg/day oral) was >31* days, the “Average Days Survival” value ([1]; 8 mg/kg/day oral) was >31* days and the “Average Days Survival” value ([1]; 16 mg/kg/day oral) was >31* days. For the same molecule, the “Average Days Survival” value ([1]; 32 mg/kg/day oral) was >31* days, the “Average Days Survival” value ([1]; 64 mg/kg/day oral) was >31* days and the responders at 4 mg/kg ([1]; 4 mg/kg/day oral) was 100%. It also gave a responders at 8 mg/kg ([1]; 8 mg/kg/day oral) of 100%, a responders at 16 mg/kg ([1]; 16 mg/kg/day oral) of 100% and a responders at 32 mg/kg ([1]; 32 mg/kg/day oral) of 100%. It also gave a responders at 64 mg/kg ([1]; 64 mg/kg/day oral) of 100%, an IC50 [2, 4] of 6 nM and an IC50 [3, 5] of 11 nM.

CC(C)(C)NCc1cc(C(C)(C)C)cc(-c2ccc(C(F)(F)F)nn2)c1O [Example 56, 4-(tert-Butyl)-2-((tert-butylamino)methyl)-6-(6-(trifluoromethyl)pyridazin-3-yl)phenol hydrochloride] showed an IC50 [2, 4] of 117 nM and an IC50 [3, 5] of 104 nM.

In the case of CC(C)(C)NCc1cc(C(C)(C)C)cc(-c2ncccc2F)c1O [Example 27, 4-(tert-Butyl)-2-((tert-butylamino)methyl)-6-(3-fluoropyridin-2-yl)phenol 1.7hydrochloride], the IC50 [2, 4] is reported as 3440 nM and the IC50 [3, 5] is reported as 6860 nM.

Molecule CC(C)(C)NCc1cc(C(C)(C)C)cc(-c2ccnc3ccccc23)c1O [Example 8, 4-(tert-Butyl)-2-((tert-butylamino)methyl)-6-(quinolin-4-yl)phenol dihydrochloride] has an IC50 ([2]; W2, read-out: W2 IC50) of 94 nM and an IC50 ([3]; D6, read-out: D6 IC50) of 109 nM.

Work on CC(C)(C)c1cc(CNCCC(F)(F)F)c(O)c(-c2ccc(C(F)(F)F)nc2)c1 [Example 57, 4-(tert-Butyl)-2-(6-(trifluoromethyl)pyridin-3-yl)-6-(((3,3,3-trifluoropropyl)amino)methyl)phenol hydrochloride] yielded an IC50 [2, 4] of 29 nM and an IC50 [3, 5] of 34 nM.

CN(C)c1ccc(-c2cc(C(C)(C)C)cc(CNC(C)(C)C)c2O)cn1 [Example 14, 4-(tert-Butyl)-2-((tert-butylamino)methyl)-6-(6-(dimethylamino)pyridin-3-yl)phenol dihydrochloride] showed an IC50 ([2]; W2, read-out: W2 IC50) of 14 nM and an IC50 ([3]; D6, read-out: D6 IC50) of 23 nM.

For COc1ccc(-c2cc(C(C)(C)C)cc(CNC(C)(C)C)c2O)cn1 [Example 12, 4-(tert-Butyl)-2-((tert-butylamino)methyl)-6-(6-methoxypyridin-3-yl)phenol dihydrochloride], the IC50 ([2]; W2, read-out: W2 IC50) was 14 nM and the IC50 ([3]; D6, read-out: D6 IC50) was 23 nM.

Work on CC(C)(C)NCc1cc(C(C)(C)C)cc(-c2ccc(Cl)s2)c1O [Example 2, 4-(tert-Butyl)-2-((tert-butylamino)methyl)-6-(5-chlorothiophen-2-yl)phenol hydrochloride] yielded an IC50 [2, 4] of 25 nM and an IC50 [3, 5] of 45 nM.

In the case of CN(Cc1cc(C(C)(C)C)cc(-c2ccc(C(F)(F)F)nc2)c1O)C(C)(C)C [Example 45, 4-(tert-Butyl)-2-((tert-butyl(methyl)amino)methyl)-6-(6-(trifluoromethyl)pyridin-3-yl)phenol hydrochloride], the IC50 [2, 4] is reported as 106 nM and the IC50 [3, 5] is reported as 275 nM.

For CC(C)(C)c1cc(CN2CCCC2)c(O)c(-c2ccc(C(F)(F)F)nc2)c1 [Example 52, 4-(tert-Butyl)-2-(pyrrolidin-1-ylmethyl)-6-(6-(trifluoromethyl)pyridin-3-yl)phenol hydrochloride], the IC50 [2, 4] was 14 nM and the IC50 [3, 5] was 23 nM.

CCN(CC)CCCNCc1cc(C(C)(C)C)cc(-c2ccc(C(F)(F)F)nc2)c1O [Example 61, 4-(tert-Butyl)-2-(((3-(diethylamino)propyl)amino)methyl)-6-(6-(trifluoromethyl)pyridin-3-yl)phenol dihydrochloride] showed an IC50 ([2]; W2, read-out: W2 IC50) of 32 nM and an IC50 ([3]; D6, read-out: D6 IC50) of 44 nM.

CC(C)(C)c1cc(CN2CCOCC2)c(O)c(-c2ccc(C(F)(F)F)nc2)c1 [Example 49, 4-(tert-Butyl)-2-(morpholinomethyl)-6-(6-(trifluoromethyl)pyridin-3-yl)phenol hydrochloride] gave an IC50 [2, 4] of 214 nM and an IC50 [3, 5] of 244 nM.

Work on CC(NC(C)(C)C)c1cc(C(C)(C)C)cc(-c2ccc(C(F)(F)F)nc2)c1O (stereo not drawn) [Example 73, 4-(tert-Butyl)-2-(1-(tert-butylamino)ethyl)-6-(6-(trifluoromethyl)pyridin-3-yl)phenol hydrochloride] yielded an IC50 [2, 4] of 2740 nM and an IC50 [3, 5] of 1860 nM.
